# Test results as given in a melting point compilation (Tetko et al.; mined from patent text by program, amines drawn as free bases though some values may be those of a salt).
row,Compound,melting point [°C]
1,COC(=O)Nc1nccc(Oc2ccc3c(C(=O)Nc4ccc(CN5CCN(C)CC5)c(C(F)(F)F)c4)csc3c2)n1,205 to 206
2,COc1ccc(/C(C)=C/c2ccc(CO)cc2)cc1C(C)(C)C,88 to 90
3,Nc1ncc(-c2cc(N3CCOCC3)nc(-n3c(C(F)F)nc4ccccc43)n2)cn1,281 to 285
4,C#CCOc1cc(-n2nc3ccc(Cl)cn3c2=O)c(F)cc1C#N,209 to 211
5,CCCC(=NOCC)C1=C(O)CC(c2cc3ccccc3o2)CC1=O (stereo not drawn),70
6,O=C(Nc1cccc(C(F)(F)F)c1)c1cccc2cc(O)ccc12,201 to 202
7,COc1ccc(-c2ccccc2C#N)cc1,82 to 83
8,CCN(CC)C(=O)c1nc(CCl)n(-c2ccc(Cl)cc2C(=O)c2ccccc2)n1,118 to 119
9,CCOc1nc2cccc(C(=O)OC)c2n1Cc1ccc(-c2ccccc2C#N)cc1,168 to 170
10,CCOC(=O)C1=C(C)N(CCOC(=O)c2ccccc2)C(=O)NC1c1ccccc1 (stereo not drawn),129
11,Cn1c(-c2cccnc2)c(CCCCCC(=O)O)c2ccccc21,117 to 120
12,N=C(N)NC(=O)Cn1c(Cc2cccs2)ccc1-c1ccccc1,99 to 120
13,COc1c(C(=O)Nc2ccc(-n3nc(C(F)(F)F)cc3C(F)(F)F)cc2)csc1Cl,119 to 120
14,O=C1Nc2ccc(Cl)c(Cl)c2C1c1ccccc1F (stereo not drawn),244 to 247
15,CCOc1c(OC)ccc2nc3[nH]cnc(=O)c3cc12,348 to 349
16,Cc1ccc(N=C=O)c(S(=O)(=O)Cl)c1,36 to 38.5
17,CN(C)c1ccc(NC2=CC(=O)C(N)=CC2=O)cc1,300
18,Cc1cn(-c2cc(C)c(N)c(C#N)c2)c(C)n1,214 to 217
19,CN(C)Cc1cnc2cc(NC(=O)c3ccc(-c4ccc(Cl)cc4)cc3)ccc2c1,236 to 238
20,CN1C(=O)CC[C@]2(C)c3ccc(-c4ccc(O)c(F)c4)cc3CC[C@@H]12,> 240
21,O=C(CCl)Nc1cccc(C(=O)Cl)c1,106 to 108
22,COc1cc2c(Nc3cccc(Cl)c3F)ncnc2cc1OC1CCN(C(=O)CC(C)(C)O)CC1,196 to 199
23,N#Cc1ccc(CC2CCN(C(=O)C(=O)Nc3ccc4[nH]c(=O)oc4c3)CC2)cc1,194
24,CCCCCS(=O)(=O)NC(=O)/C=C/c1ccc(OCCOC)cc1Oc1cc(C(F)(F)F)ccc1[N+](=O)[O-],164 to 165
25,CSC(=N)Nc1ccc(Cl)c(Cl)c1,166

row,Compound,melting point [°C]
1,O=c1c2ccc(OCCN3CCCCC3)cc2oc2cc(OCCN3CCCCC3)ccc12,134
2,CCC(C)S(=O)(=O)c1snc(OC(F)F)c1C#N (stereo not drawn),42 to 43
3,CC(=O)NC[C@H]1CN(c2ccc(N3CCC(=CC#N)C(C)(C)C3)c(F)c2)C(=O)O1,150 to 152
4,CCOC(=O)NN=Cc1c[nH]c(C)n1,210 to 212
5,CC(C)(C)OC(=O)N1CCC(c2cc(F)ccc2F)(S(=O)(=O)c2ccc(Cl)cc2)CC1,101 to 106
6,CCOC(=O)C1=Cc2cc(Br)ccc2NCC1,120 to 121
7,CC1(C)OCCC2C(C3(O)CCSCC3)C(=O)N21 (stereo not drawn),133 to 134
8,FC(F)(F)Oc1ccc2nc(COc3ccccc3)[nH]c2c1,65 to 66
9,COc1cc(Cl)c(C=O)c(Cl)c1,107 to 109
10,CSC(SC)C1(O)O[C@H](COCc2ccccc2)[C@@H](OCc2ccccc2)[C@H](OCc2ccccc2)[C@H]1OCc1ccccc1 (stereo partly drawn),96 to 97
11,Cc1c(-c2cc(O)c(Cl)cc2F)ncnc1C(F)(F)F,141 to 142
12,O=S(=O)(Cl)c1ccc(-c2cccc(F)c2)s1,75 to 84
13,CCCCSc1c(CC(C)(C)C(=O)O)n(Cc2ccc(Cl)cc2)c2ccc(C(C)C)cc12,129 to 130
14,O=S(=O)(CCl)N(Cc1cccnc1)C1CCCCC1,67 to 72
15,CC(C)(C)c1cc(NC(=O)c2cccc(C(=O)O)c2)cc(C(C)(C)C)c1O,253 to 257
16,O=c1[nH]ncc(Cl)c1-c1ccccc1,193 to 195
17,OCC1Oc2cccc(F)c2OC1CO (stereo not drawn),122 to 124
18,CC(=O)c1c(O)c(C(C)=O)c(C(C)=O)c2c1Oc1cc(O)ccc1N2,208
19,Cc1ccc(O)c2c1C(C(=O)N(Cc1ccc(N(C)C)cc1)c1ccc(C(C)C)cc1)CCC2 (stereo not drawn),190
20,COc1c(Br)ccc2s[nH]c(=O)c12,197 to 198
21,C=CCSc1cn(C)cc(-c2cccc(C(F)(F)F)c2)c1=O,74 to 75
22,O=S(=O)(Cc1ccccc1)On1nnc2ccc(Cl)cc21,126 to 128
23,CC(=O)Oc1c(C)cc2c(c1C)C(C)CN2C(=O)C(C)C (stereo not drawn),118 to 120
24,Cn1nc(Cl)c(Cl)cc1=O,97
25,COc1ccc2c(c1)c(=O)c(CO)cn2C,194 to 197

row,Compound,melting point [°C]
1,O=C(c1ccc(-c2ccccc2)cc1)n1c2cc(O)c(O)cc2c2ccc(O)c(O)c21,291 to 294
2,CC(C)(C)OC(=O)CN(Cc1cc(C(F)(F)F)cc(C(F)(F)F)c1)Cc1cc2ccccc2nc1Cl,84
3,CCOC(=O)c1c(C)[nH]c2ccccc12,96 to 98
4,COc1cc(OCCN2C3C=C(c4ccc5ccccc5c4)CC2CC3)c2ncccc2c1 (stereo not drawn),100 to 103
5,CC(C)(C)OC(=O)N1[C@@H](C(=O)O)CC[C@H]1c1ccccc1 (racemic),113 to 117
6,CCOC(=O)CCc1cccc(NC(=O)c2cc(-c3ccc(C(F)(F)F)cc3)oc2C)c1,134 to 135
7,COc1ccc([C@H](Sc2ccccc2NC(C)=O)[C@@H](O)C(=O)O)cc1,173 to 175
8,CC(CCc1cc2cccnc2n(-c2cccc([N+](=O)[O-])c2)c1=O)c1ccncc1 (stereo not drawn),154 to 155
9,CC(C)c1cc(C(C)C)n(-c2ccc(NC(=O)c3cccnc3)cc2)n1,190 to 192
10,CCOCc1nc2c(N)nc(C)c(C)c2n1CCCNC(=O)OCC,148 to 150
11,O=[N+]([O-])c1cc2ccccc2nc1Nc1ccc(O)cc1,190
12,CC(=O)c1ccc(OC(CCCCC(=O)O)c2ccccc2)cc1O (stereo not drawn),91 to 93
13,Cc1cc(-c2noc(C(F)(F)F)n2)cc(C)c1OCCCc1ccc(Cl)nc1,89 to 91
14,N#Cc1ccc(N(Cc2ccc(OCc3ccccc3)cc2)n2cnnc2)cc1-c1ccc(F)cc1,211 to 213
15,COc1cc(-n2nc(C)[nH]c2=O)c(F)cc1Cl,193 to 195
16,CN(Cc1ccccc1S(=O)c1nc2ccccc2[nH]1)c1ccccc1 (stereo not drawn),164 to 166
17,N#CCc1ccc(Cl)nc1,80
18,CCOc1nccc(-c2c(-c3ccc(F)cc3)ncn2[C@H]2CC[C@H](O)CC2)n1,184 to 186
19,O=C(O)C1CCCc2cc(C3CCCCC3)c(Cl)cc21 (stereo not drawn),119 to 120
20,c1csc(OCCOc2ccc3ccccc3c2)c1,129 to 130
21,O=[N+]([O-])c1cc(C(F)(F)F)cc([N+](=O)[O-])c1P(=O)(c1ccccc1)c1ccccc1,214 to 215
22,Cc1cccc(N2Cc3ccccc3P2(=O)C(C)C)c1 (stereo not drawn),112 to 113
23,CCOC(=O)c1cn2c(nc1=O)CCC2C (stereo not drawn),130
